Laboratory results as given in patent US20040034052A1, “Tricyclic derivatives of indole with antiangiogenic activity” (priority 2003, published 2004).
Like-named read-outs stand apart in the source and are kept apart here.

How the values were obtained:
[1] = test system: MCF-7 (human mammary carcinoma); assay: Sulforodamine B antiproliferative test, sensitive MCF-7 cells; assay type: cell-based; settings: MCF7, MCF-7 sensitive, 24 hours incubation, survival after another 48 hours, read-out: IC50 +/− SD, antiproliferative activity vs sensitive cell, MCF-7
Method: (§1) For the cytotoxic activity, proliferation screening tests were used, with different tumour lines, such as MCF-7 (human mammary carcinoma), LoVo (human colon carcinoma), MES-SA (human uterine sarcoma), or K-562 (human chronic myeloid leukaemia).
(§2) The test used was the sulforodamine B test used for screening anticancer products at the National Cancer Institute (Skehan, 1990). The molecules at scalar concentrations over a range from 500 μM to 0.97 μM, were incubated in parallel with different human cell lines for 24 hours. After removing the products, cell survival was investigated after another 48 hours with the NCI test. The antiproliferative capacity of the compounds was quantified in terms of IC50±SD (concentration of the molecule that inhibits 50% of cell survival) processed using a curve fitting program (De Lean et al., 1978).

[2] = test system: LoVo resistant cell (LoVo/Dx, overexpressing P-glycoprotein, resistant to doxorubicin); assay: Antiproliferative activity vs resistant cells, LoVo; assay type: cell-based; settings: Homo sapiens, read-out: IC50 +/− SD, antiproliferative activity vs resistent cell, LoVo
Method: as §2
(§3) The cytotoxicity of the molecules on tumour lines resistant to chemosensitising activity was assessed on various tumour cell lines overexpressing P-glycoprotein and resistant to doxorubicin (100-fold) and cross-resistant to daunorubicin, actinomycin D, mitoxantrone, vincristine, vinblastine, taxol, colchicine, and etoposide. The cytotoxicity of the products was assessed using the same test adopted for the sensitive tumour cells.

[3] = test system: LoVo (human colon carcinoma); assay: Sulforodamine B antiproliferative test, sensitive LoVo cells; assay type: cell-based; settings: 24 hours incubation, survival after another 48 hours, read-out: IC50 +/− SD, antiproliferative activity vs sensitive cell, LoVo
Method: as §1, §2

LoVo/Dx cell line = assay: Potentiation of doxorubicin cytotoxicity (MDR ratio), LoVo/Dx; assay type: cell-based, human; settings: compound at 11 μM
Method: as §3
(§4) Later, the products were assayed at a concentration lower than or equal to the one that inhibits 10% of cell survival. At this concentration, the molecules were tested in parallel in the absence and presence of doxorubicin. MDR ratios were calculated for the IC50 values in order to establish the degree of potentiation of the cytotoxic activity of doxorubicin induced by the product (MDR ratio) (De Lean et al. (1978) A. J. Physiol. 235, E97-102); (Skehan et al. (1990) J. Natl. Cancer Inst. 82, 1107-1112).

MCF-7/Dx line = assay: Potentiation of doxorubicin cytotoxicity (MDR ratio), MCF-7/Dx; assay type: cell-based, human; settings: compound at 11 μM
Method: as §3, §4

[4] = test system: MCF-7 resistant cell (MCF-7/Dx, overexpressing P-glycoprotein, resistant to doxorubicin); assay: Antiproliferative activity vs resistant cells, MCF-7; assay type: cell-based; settings: Homo sapiens, MCF7; MCF-7 resistant (doxorubicin-resistant); read-out: IC50 +/− SD, antiproliferative activity vs resistent cell, MCF-7
Method: as §2, §3

MCF-7 cells = assay: Cell cycle and apoptosis analysis (propidium iodide, FACS) on MCF-7 cells; assay type: cell-based, human
Method: The cell cycle and apoptosis analysis on a tumour line was done by incubating the products for 24 hours at a concentration equal to approximately the IC50 Values with MCF-7 cells. The molecules were removed and the cell cycle and apoptosis were assessed at different times (0, 24, 48 hours). The cells were stained with propidium iodide and analysed with a cytofluorimeter (FACS) ([…] fluorescence activated cell sorter) by means of an argon ion laser set at 488 nm for the excitation. To assess the percentage of cells in the various stages of the cycle, linear DNA histograms were analysed with a cell fit program distributed by the equipment manufacturer. For the analysis of apoptosis, a region was inserted below the G0/G1 peak of the control population and the data were analysed with software supplied by the company (Lysis II-C32).

[5] = test system: BMEC (bovine medullary endothelial cell); assay: Chemotactic assay with the Boyden chamber on BMEC; assay type: cell-based; settings: for % inhibition of migration at IC0/D.S.: BMEC, at IC0, chemotactic stimulus 1% bovine serum in DMEM
Method: For the antiangiogenic activity the chemotactic assay with the Boyden chamber was performed (Werner F., Goodwin R. H. and Leonard E. J., Journal of Immunological Methods 1980; 33, 239-247), using both bovine aortal endothelial cell (BAEC) cultures and bovine medullary endothelial cell (BMEC) cultures. The assays were performed at IC0 (maximum non-cytotoxic concentration) and the results expressed as % inhibition of migration across a porous filter in response to a chemotactic stimulus (1% bovine serum in DMEM culture medium). This finding was obtained by direct cell count under the optical microscope, and the percentage migration inhibition was calculated according to the formula (T−C/C)×100, where T=mean number of cells migrating in the sample and C=mean number of cells migrating in the control. The control consisted of cells which migrated towards the serum, not treated with the study molecules, and included in every chemotaxis experiment. The data refer to the readings of 5 microscopic fields/well in 4 independent chemotaxis wells per sample.

[6] = test system: BMEC (bovine medullary endothelial cell); assay: Cytotoxicity on endothelial cells (BMEC); assay type: cell-based; settings: BMEC
[7] = Cytotoxicity on endothelial cells (BMEC); assay type: cell-based, bovine; settings: bovine, BMEC (bovine medullary endothelial cell) cultures
[8] = read-out: IC50 (μM), cytotoxicity on BMEC

Row | Compound | IC50 [1] [µM] | IC50 [2] [µM] | IC50 [3] [µM] | melting point | IC50 [4] [µM] | % inhibition of migration at IC0/D.S. [5] | IC0 (μM) (maximum non-cytotoxic concentration) [6] [µM] | IC50 [7, 8] [µM] | also measured
1 | CC1(C)OCC(C2c3c([nH]c4ccccc34)C(c3c[nH]c4ccccc34)C3OC(C)(C)OC32)O1 (racemic) [ST1372, 1-(indol-3-yl)-2,3-O-isopropylidene-4-(2,3-O-isopropylidene-ethyl)-tetrahydrocarbazole] | 21.1 | 21.7 | 21.7 | 204 to 206 °C (dec.) | 21.1 |  |  |  | increase of the activity of Doxorubicin (MDR ratio) (LoVo/Dx cell line): 3,5 times; increase of the activity of Doxorubicin (MDR ratio) (MCF-7/Dx line): 3,5 times; increases and blocks in G0/G1 (% of the cell) (MCF-7 cells; MCF-7, 20 μM, relative to control): 23%; increases and blocks in G0/G1 (% of the cell) (MCF-7 cells; MCF-7, 40 μM, relative to control): 32%; G0/G1 (%) (MCF-7 cells; MCF-7, compound at 20 μM): 20 μM = 54.4%; G2 + M (%) (MCF-7 cells; MCF-7, compound at 20 μM): 20 μM = 11.4%; S(%) (MCF-7 cells; MCF-7, compound at 20 μM): 20 μM = 34.2%; G0/G1 (%) (MCF-7 cells; MCF-7, compound at 40 μM): 40 μM = 57.8%; G2 + M (%) (MCF-7 cells; MCF-7, compound at 40 μM): 40 μM = 5.4%; S(%) (MCF-7 cells; MCF-7, compound at 40 μM): 40 μM = 36.8%; Apoptosis 48 h (%) (MCF-7 cells; MCF-7, compound at 40 μM): 40 μM = 16%
2 | c1ccc2c(C3CCCCc4c3[nH]c3ccccc43)c[nH]c2c1 (racemic) [ST1381, 1-(indol-3-yl)-indo [2,3a]-cycloheptan.] | 28.5 | 25.2 | 22.5 |  | 28.4 | −61.7% | 30 |  | chemotaxis of endothelial cells (in words) [5]: active for the chemotaxys; chemotaxis of endothelial cells (in words) ([5]; listed as ST 1381): the better anti-chemiotactic compound; IC50 [6]: > 100 µM; IC50 ([7]; endothelial cell, read-out: cytotoxicity vs endotelial cell (IC)): > 100 µM; increases and blocked in G0/G1 (% of the cell line) (MCF-7 cells; MCF-7, 30 μM, relative to control): 32%; G0/G1 (%) (MCF-7 cells; MCF-7, compound at 30 μM): 30 μM = 57.7%; G2 + M (%) (MCF-7 cells; MCF-7, compound at 30 μM): 30 μM = 10.1%; S(%) (MCF-7 cells; MCF-7, compound at 30 μM): 30 μM = 32.2%; Apoptosis 48 h (%) (MCF-7 cells; MCF-7, compound at 30 μM): 30 μM = 3.3%
3 | OCCCCC(c1cc2cc3c(cc2[nH]1)OCO3)c1c[nH]c2cc3c(cc12)OCO3 (racemic) [ST1423, (R,S)-5-hydroxy-1,1-di-(5′,6′-methylendioxy-indol-2-yl,5 ″,6″-methylendioxy-indol-3-yl)-pentane] |  |  |  | 220 °C (dec.) |  |  |  |  | 
4 | c1ccc2c(C3CCCCc4[nH]c5ccccc5c43)c[nH]c2c1 (racemic) [ST1621, 5-(indol-3-yl)-indo [2,3a]-cycloheptan.] | 22.5 | 23.8 | 34.8 |  | 68.3 | −43 +/− 4% | 0.1 | 10 | 
5 | c1ccc2c(C3CCCc4c3[nH]c3ccccc43)c[nH]c2c1 (racemic) [ST1728, 1-(1H-indol-3-yl)-tetrahydro-1H-carbazole] | 22 |  | 22.8 | 207 °C |  |  |  |  | 
6 | c1ccc2c(C3CCCc4[nH]c5ccccc5c43)c[nH]c2c1 (racemic) [ST1729, 4-(1H-indol-3-yl)-tetrahydro-1H-carbazole] | 35 |  | 50.5 | 182 °C |  | −40 +/− 3% | 25 | 80 | 
7 | c1[nH]c2cc3c(cc2c1C1CCCCc2c1[nH]c1cc4c(cc21)OCO4)OCO3 (racemic) [ST1749, 1-(5″, 6″-methylendioxy-indol-3-yl)-5′,6′-methyleridioxy-indo [2,3-a]-cycloeptane] |  |  |  | 184 °C (dec.) |  | −40 +/− 3% | 100 | > 200 | 
8 | c1[nH]c2cc3c(cc2c1C1CCCc2c1[nH]c1cc4c(cc21)OCO4)OCO3 (racemic) [ST1751, 1-(5′,6′-methylendioxy-1H-indol-3-yl)-6,7-methylendioxy-tetrahydro-1H-carbazole] |  |  |  | 200 °C (dec.) | 58.6 |  |  |  | 
9 | c1ccc(COc2ccc3[nH]cc(C4CCCCc5c4[nH]c4ccc(OCc6ccccc6)cc54)c3c2)cc1 (racemic) [ST1765, 1-(5″-benzyloxy-indol-3-yl)-5′-benzyloxy-indo[2,3a]-cycloheptan.] | 11.5 | 17 | 10.5 | 286 °C (dec.) | 24.8 |  |  |  | 
10 | c1[nH]c2cc3c(cc2c1C1CCCc2[nH]c4cc5c(cc4c21)OCO5)OCO3 (racemic) [ST1777, 4-(5′,6′-methylendioxy-1H-indol-3-yl)-6,7-methylendioxy-tetrahydro-1H-carbazole] | 0.96 |  | 0.64 |  |  |  |  |  | 
11 | c1ccc(COc2ccc3[nH]cc(C4CCCCc5[nH]c6ccc(OCc7ccccc7)cc6c54)c3c2)cc1 (racemic) [ST1778, 5-(5″-benzyloxy-indol-3-yl)-5′-benzyloxy-indo[2,3a]-cycloheptan.] | 28.5 | 65.1 | 54.5 |  | 71 | −40 +/− 4% | 25 | 50 | 
12 | Oc1ccc2[nH]cc(C3CCCCc4c3[nH]c3ccc(O)cc43)c2c1 (racemic) [ST1783, 1-(5″-hydroxy-1H-indol-3-yl)-5′-hydroxy-indo[2,3a]-cycloheptan.] | 27 |  | 29 |  | 39 | −46% | 10 | 60 | 
13 | OCCCCC(c1c[nH]c2cc3c(cc12)OCO3)c1c[nH]c2cc3c(cc12)OCO3 [ST1422, 5-hydroxy-1,1-di-(5,6-methylendioxy-indol-3-yl)-pentane] |  |  |  | 200 °C (dec.) |  |  |  |  | 
14 | OCCCC(c1c[nH]c2cc3c(cc12)OCO3)c1c[nH]c2cc3c(cc12)OCO3 [ST1730, 4-hydroxy-1,1-di-(5′,6′-methylendioxy-indol-3-yl)-butane] |  |  |  | 240 °C (dec.) |  |  |  |  | 
